One data set relates to human CD34+ cells. The format is cell-based.
In a further data set the test system is hCD34+ cells. The note with it: for Cytotoxic effect of the peptides: hCD34+ cells transduced with RD114TR-LV or GALVTR-MLV, peptide 12 μg/ml.
For the next data set, the system named is lentiviral vectors. The note with it: Wurm et al., 2010; cited from earlier work.
The next data set relates to 293T cells. Description: Transfection of 293T cells with pEGFP-C1 in presence of peptides. The class given is cell-based. The note with it: peptide 24 μg/ml; 1 μg pEGFP-C1; 48 h. The method, then:
FIG. 11. Transfection of 293T cells with pEGFP in presence of LAH4-A4, LAH4-L1 or K2-L10A12-K2 peptides. pEGFP-C1 (1 μg) was mixed in 50 μl of 150 mM NaCl solution with either 3 μg, 4.5 μg, 6 μg or 9 μg of LAH4-A4 or 6 μg of LAH4-L1 or 6 μg of K2-L10A12-K2. Next, the DNA/peptide mix was diluted in 200 μl of DMEM without FCS and loaded onto cell monolayers. 3 hours post-transfection, the medium was replaced with DMEM containing 10% FCS. 48 h later, transfection efficiencies were estimated by monitoring GFP expression using flow cytometry. Data are the average of two independent experiments performed in duplicate with SD.
293T cells (1.5×10E5/well) were plated in 48-well plates the day before transfection. For transfection, 1 μg of pEGFP-C1 was mixed with the desired amount of peptide in 50 μl of 150 mM NaCl solution, vortexed and incubated 15 min at room temperature. Next, the DNA/peptide mix was diluted in 200 μl of DMEM without FCS and loaded onto cell monolayers. 3 hours post-transfection, the medium was replaced with DMEM containing 10% FCS. 48 h later, transfection efficiency was estimated by monitoring GFP expression using flow cytometry.

The subject of data set [1] is human hematopoietic cells engraftment. The settings on record: hCD34+ cells transduced in presence of 12 μg/ml LAH4-L1.

Where no end group is shown, it is not given here.

Turning to “ALLAHALHLLALLALHLAHALA (LAH4-L1-dK) [LAH4-L 1-dK]”, the “Transduction efficiency compared with LAH4-L1 (in words)” value with human CD34+ cells is given as “not detectable”.
On to ALLAHALHLLALLALHLAHALKKA (LAH4-L1-dKN), for which, in the data set with human CD34+ cells, the “Transduction efficiency compared with LAH4-L1 (in words)” value was “not detectable”.
As for “ALLHAALAHLLALAHHLLALLKKA-NH2 [LAH4-A4-dKN]”, the “Cytotoxicity (mortality, 7-AAD)” value in the data set with hCD34+ cells was “not the consequence of a strong cytotoxic effect”.
As to “GIHKQKEKSRLQGGVLVNEILNHMKRATQIPSYKKLIMY (SEVI) [human Semen Enhancer of Viral Infection, fragment of the human prostatic acid phosphatase; not amidated]”, the “Ability to promote the transduction of lentiviral vectors” value in the data set on lentiviral vectors is recorded as “able to promote the transduction of lentiviral vectors”.
Consider HHALLAHALHLLALLALHLAHALHHA (LAH8-L1), for which the “Transduction efficiency compared with LAH4-L1 (in words)” value in the data set on human CD34+ cells was “detrimental”.
In the case of KALLHAALAHLLALAHHLLALLKKA (LAH4-A4-K1N), the “hCD34+ transduction level compared to LAH4-A4” value in the data set with human CD34+ cells came out at 60%.
Regarding “KKALLAAALAALLALAAALLALLKKA (K2-L10A12-K2)”, in the data set on human CD34+ cells, the “Transduction efficiency compared with LAH4-A4 (in words)” value is reported as “still able to promote some lentiviral transduction” and the “hCD34+ transduction level compared to LAH4-A4” value stood at 17%. Further, the “Transfection of 293T cells with GFP plasmid” value in the data set with 293T cells was “unable to promote cell transfection”.
Consider KKALLAAALAALLALAHHLLALLKKA (LAH2-A4), for which the “Transduction efficiency compared with LAH4-A4 (in words)” value with human CD34+ cells is “not functional”.
Take KKALLAHALHLLALLALHLAHALA (LAH4-L1-dKC): the “Transduction efficiency compared with LAH4-L1 (in words)” value with human CD34+ cells is “as efficiently as LAH4-L1”.
As for “KKALLAHALHLLALLALHLAHALKKA-NH2 [LAH4-L1]”, the “Cytotoxic or deleterious effect on human immune system reconstitution” value in data set [1] is “did not observed any cytotoxic or deleterious effect”. Also, in the data set with hCD34+ cells, the “Cytotoxic effect (mortality, 7-AAD)” value is “did not observe any cytotoxic effect” and the “Cytotoxic effect of the peptides” value is “did not observe any cytotoxic effect”.
For “KKALLAKALKLLALLALKLAKALKKA-NH2 [LAK4-L1]”, in the data set on hCD34+ cells, the “Cytotoxicity (mortality, 7-AAD)” value is listed as “not the consequence of a strong cytotoxic effect”.
On the same count and under the same terms, for “KKALLHAALAHLLALAAALLALLKKA-NH2 [LAH2-A6]” the value was “no apparent cytotoxicity”.
In the case of “KKALLHAALAHLLALAHHLLALLKK (LAH4-A4-d1aa)”, the “Transduction efficiency compared with LAH4-A4 (in words)” value in the data set on human CD34+ cells is “slightly decreases the efficiency”.
On to “KKALLHAALAHLLALAHHLLALLKKA-NH2 [LAH4-A4]”, for which, in the data set on hCD34+ cells, the “Cytotoxicity (mortality, 7-AAD)” value is recorded as “no apparent cytotoxicity”; the “Cytotoxicity (mortality, 7-AAD) in dose-response experiment” value is “no apparent cytotoxicity”; the “Cytotoxic effect of the peptides” value is “did not observe any cytotoxic effect”.
Take “KKALLHAALAHLLPLAHHLLALLKKA (LAH4-A4-P14)”: the “Lentiviral transduction abolished relative to LAH4-A4” value in the data set on human CD34+ cells is reported as 80%.
For the substance “KKALLHALLAHLAALLHALLAHLKKA-NH2 [LAH4-A5]”, the “Cytotoxic effect of the peptides” value in the data set on hCD34+ cells is “did not observe any cytotoxic effect”.
As to “KKALLHLALLHAALLAHHLALALKKA-NH2 [LAH4-L4ISO]”, the “Cytotoxic effect of the peptides” value in the data set on hCD34+ cells is “did not observe any cytotoxic effect”.
With “KKKLLHAALAHLLALAHHLLALLKKA (LAH4-A4-K3N)”, the “Transduction efficiency compared with LAH4-A4 (in words)” value with human CD34+ cells is recorded as “as efficient as LAH4-A4”.
Consider KKLLHAALAHLLALAHHLLALLKK (LAH4-A4-d2aa), for which the “hCD34+ transduction level compared to LAH4-A4” value with human CD34+ cells is 30%.
As to “KKLLLHALLAHLLALLHHLLALLKKL (LAH4-A4-Leu)”, the “Transduction efficiency compared with LAH4-A4 (in words)” value with human CD34+ cells is given as “two times less potent than LAH4-A4”.
Take “LAH4-L4: L series peptide with hydrophilic angle of 140°; b61: LAH4-L4 peptide of SEQ ID NO:36; possibly LAH4-L4iso is meant (KKALLALALHHLALLAHLLALHLKKA; LAH4-L4) [L series peptide with hydrophilic angle of 140°; possibly LAH4-L4iso is meant]”: the “Capacity to promote transduction of hCD34+ cells with GALVTR-LVs, ranking within L and A series of isomers” value in the data set with human CD34+ cells is on record as “most efficient”.
In the case of “RRALLAHALHLLALLALHLAHALRRA-NH2 [LAH4-L1-R]”, the “Cytotoxicity (mortality, 7-AAD)” value with hCD34+ cells is on record as “no apparent cytotoxicity”.

The record behind these values is patent publication US10596264B2, “Peptides with viral infection enhancing properties and their use” (Genethon, priority 2011, dated 2020).
